SMILES strings stand for the structures. ≈ marks a conversion by molar mass, not a printed value. Calls of active or inactive are those of the source. No cut-off for these calls is given here. Some results are limits rather than exact numbers.

What is called HC50 is the concentration that lyses half of the red blood cells.

In data set [1] the test system is Candida albicans. The data set is described as follows: Antifungal activity against Candida albicans SP3903 assessed as inhibition of fungal growth incubated for 48 hrs. It counts as functional.
The nature of data set [2]: Proteolytic stability of the compound assessed as chymotrypsin (unknown origin)-mediated drug degradation measured after 8 hrs by 16.5% tricine-SDS-PAGE analysis. It counts as ADME. The settings on record: human.
In data set [3] the test system is Candida albicans. Nature of the data set: Resistance development in Candida albicans CGMCC 2.2086 measured after 30 passages by broth microdilution method. It counts as functional, organism-based. In general terms: In broth dilution the organism is exposed to a series of concentrations in liquid medium.
Data set [4] concerns Candida albicans. Nature of the data set: Antifungal activity against Candida albicans CGMCC 2.2086 infected in C57BL/6 mouse keratitis model assessed as increase in ocular clarity at 5 mg/ml administered as 10 uL eye drop every 5 mins for first 1 hr and every 30 mins for next 7 hrs. It counts as functional, organism-based. The settings on record: route ou, time 8.0 hrs.
Data set [5] concerns Candida albicans. The data set is described as follows: Antifungal activity against Candida albicans SP3931 assessed as inhibition of fungal growth incubated for 48 hrs. It counts as functional.
In data set [6] the test system is Candida albicans. The data set is described as follows: Antibiofilm activity against Candida albicans CGMCC 2.2086 assessed as eradication of mature biofilm at 4X MIC measured after 3 hrs by SYTO 9/propidium iodide staining based fluorescence microscopy. It counts as functional, organism-based.
Data set [7] is described as follows: Hemolytic activity in human red blood cells assessed as hemolysis incubated for 1 hr. It counts as toxicity, cell-based, Erythrocyte.
The subject of data set [8] is Candida albicans. Nature of the data set: Antifungal activity against Candida albicans CGMCC 2.2086 assessed as inhibition of fungal growth incubated for 48 hrs in presence of KCl. It counts as functional.
For data set [9], the system named is Candida albicans. The data set is described as follows: Antifungal activity against Candida albicans CGMCC 2.2086 assessed as inhibition of fungal growth incubated for 48 hrs in presence of MgCl2. It counts as functional.
Data set [10] has as its system Candida albicans. Nature of the data set: Antifungal activity against Candida albicans CGMCC 2.2086 assessed as inhibition of fungal growth incubated for 48 hrs in presence of NH4Cl. It counts as functional.
A short description of data set [11]: Stability of the compound in ZnCl2 assessed as change in secondary structure by CD spectra analysis. It counts as physicochemical.
The test system of data set [12] is Candida albicans. The data set is described as follows: Induction of morphological changes in Candida albicans CGMCC 2.2086 assessed as separation of cell wall from plasma membrane at 1X MIC measured after 60 mins by TEM analysis. It counts as functional, organism-based.
In data set [13] the test system is Candida albicans. The data set is described as follows: Induction of morphological changes in Candida albicans CGMCC 2.2086 assessed as appearance of cell pits at 1X MIC measured after 60 mins by SEM analysis. It counts as functional, organism-based.
Data set [14] can be described thus: Stability of the compound in CaCl2 assessed as change in secondary structure by CD spectra analysis. It counts as physicochemical.
Data set [15] has as its system Candida albicans. Nature of the data set: Fungicidal activity against Candida albicans CGMCC 2.2086 at 1X MIC measured within 90 mins by time-kill assay. It counts as functional, organism-based.
Data set [16] has as its system Candida albicans. The data set is described as follows: Fungicidal activity against Candida albicans CGMCC 2.2086 measured up to 120 mins by time-kill assay. It counts as functional, organism-based.
The test system of data set [17] is Candida albicans. The data set is described as follows: Antifungal activity against Candida albicans SP3902 assessed as inhibition of fungal growth incubated for 48 hrs. It counts as functional.
Data set [18] is described as follows: Cytotoxicity against porcine IPEC-J2 cells assessed as reduction in cell viability at 128 uM incubated for 4 hrs by MTT assay. It counts as toxicity, cell-based, Sus scrofa. The settings on record: pig, ipec-j2, 4 h. A general note: Tetrazolium dyes change colour on reduction, which living cells bring about.
Data set [19] has as its system Candida albicans. The data set is described as follows: Antifungal activity against Candida albicans CGMCC 2.2086 infected in C57BL/6 mouse keratitis model assessed as reduction in clinical scores at 5 mg/ml administered as 10 uL eye drop every 5 mins for first 1 hr and every 30 mins for next 7 hrs. It counts as functional, organism-based. To be noted: route ou, time 8.0 hrs.

As for `CC[C@H](C)[C@H](N)C(=O)N[C@H](C(=O)N[C@H](CCCNC(=N)N)C(=O)N[C@@H](CCCNC(=N)N)C(=O)N[C@@H](Cc1c[nH]cn1)C(=O)N[C@H](C(=O)N[C@H](C(=O)N[C@H](C(=O)N[C@H](C(=O)N[C@H](CCCNC(=N)N)C(=O)N[C@@H](CCCNC(=N)N)C(=O)N[C@@H](Cc1c[nH]cn1)C(=O)N[C@H](C(=O)N[C@H](C(=O)N[C@H](C(=O)N[C@H](C(=O)N[C@H](CCCNC(=N)N)C(=O)N[C@@H](CCCNC(=N)N)C(=O)N[C@@H](Cc1c[nH]cn1)C(=O)N[C@H](C(=O)N[C@H](C(N)=O)[C@@H](C)CC)[C@@H](C)CC)[C@@H](C)CC)[C@@H](C)CC)[C@@H](C)CC)[C@@H](C)CC)[C@@H](C)CC)[C@@H](C)CC)[C@@H](C)CC)[C@@H](C)CC)[C@@H](C)CC`, the MIC95 in data set [1] worked out at 2 µM (≈ 5.45 µg/mL); in [5], 2 µM (≈ 5.45 µg/mL); in [8], 4 µM; in [9], 4 µM; in [10], 2 µM; in data set [17], 2 µM (≈ 5.45 µg/mL). The Stability entry in data set [2], in data set [11] and in data set [14] was “Stable” each time. Moreover, in data set [3], the outcome was inactive. Further, the outcome in data set [4], in data set [6], in data set [12], in [13] and in data set [19] was Active. In addition, the HC50 at 1 h in data set [7] was > 512 µM. For the same compound, the figures for the Activity entry in data set [15], in data set [16] and in data set [18] were “Active; Eliminated All Fungal Organisms”, “Dose-dependent-effect” and “Toxic”, respectively.

The values above are taken from ChEMBL document CHEMBL6134779, “Design of Proteolytic-Resistant Antifungal Peptides by Utilizing Minimum d-Amino Acid Ratios” (J Med Chem, 2024).
